Measurements from patent US20140135370A1, “TREATING CANCER WITH AN HSP90 INHIBITORY COMPOUND” (SYNTA PHARMACEUTICALS CORP., priority 2011, published 2014).
Like-named read-outs stand apart in the source and are kept apart here.

Assays:
solid tumors [1] = assay: Phase I dose escalation study, twice-weekly administration in patients with solid tumors; format: in vivo, human; conditions: 41 of 54 enrolled patients assessable; 1-hour infusion 2 times per week, 3 weeks on, 1 week dose-free
Method: An open-label Phase 1 dose-escalation study in subjects with solid tumors was performed. […] The first infusion for the first three subjects was staggered by a minimum of 5 days between subjects. This staggered enrollment scheme was followed for the first cohort only.
Subsequent cohorts were originally planned to receive escalating doses of 4, 7, 10, 14, 19, 25, 33, 40 and 48 mg/m^2, provided that the previous dose was well-tolerated during cycle 1 (week 1-4). The dose escalation scheme was updated to 25, 50, 75 and 100 mg/m^2, provided that the previous dose was well-tolerated during cycle 1. Following the completion of enrollment at 50 mg/m^2 twice per week, subsequent cohorts were to be treated at 100 mg/m^2 (100% increase above prior dose) and 120 mg/m^2 (20% increase above prior dose), with further dose increments to be approximately 20% over the previous dose level, until the maximum tolerated dose (MTD) was determined. Enrollment was completed at 100 mg/m^2 and the next doses planned were 120 mg/m^2 and 144 mg/m^2.
There had to be at least three evaluable subjects in a cohort before dose escalation could occur. […] Once a subject experienced a DLT the cohort was expanded to six subjects. If only 1 of 6 subjects experienced a DLT, further dose escalation was allowed. However, if 2 of 3 or 2 of 6 subjects experienced a DLT, dose escalation terminated. […]

NSCLC = assay: Phase 2 clinical trial in NSCLC by KRAS, EGFR and ALK mutation status; format: in vivo, human
Method: Initial cohorts were defined by mutation status: A) EGFR mutation, KRAS wild-type B) EGFR wild-type, KRAS mutation C) EGFR wild-type, KRAS wild-type (WT). If ≧2/14 patients in A, B or C were progression-free at 16 weeks, enrollment increased to 23 patients for that cohort. Tumor response was assessed every 8 weeks. Cohort D was added to include 35 additional EGFR wild-type and KRAS wild-type patients with adenocarcinoma histology. FISH analysis for ALK translocation, was performed for Cohorts C and D.

GIST = assay: Phase 2 study in gastrointestinal stromal tumors (GIST); format: in vivo, human
Method: GIST status was assessed at 8 weeks per RECIST, until progression.

solid tumors [2] = assay: Phase 2 study in solid tumors, twice-weekly infusion; format: in vivo, human
Text: (§1) Serial PK and pharmacodynamic samples were obtained during cycle 1. Safety assessments included frequency and grade of adverse events (AEs), laboratory parameters and ECG changes.

[3] = Serial PK in patients with solid tumors, twice-weekly infusion; format: in vivo, human
Text: as §1

HCC70 = assay: 72 hr viability by CTG, HCC70; format: cell-based; conditions: Homo sapiens, HCC70, Basal A
Method: Breast cancer is a heterogeneous disease historically broken down into 4 subtypes. Various compounds were tested for their effects in cell viability assays using various breast cancer cell lines. Cellular viability was assessed using the CellTiter-Glo® Luminescent Cell Viability Assay (Promega, Madison, Wis., USA) according to the manufacturer's protocol. […] were seeded into 96-well plates based on optimal growth rates determined empirically for each line. […] CellTiter-Glo® was added (50% v/v) to the cells, and the plates incubated for 10 min prior to luminescent detection in a SpectraMax® Plus 384 microplate reader (Molecular Devices, Sunnyvale, Calif., USA). Data were normalized to percent of control and IC50 values used to determine the sensitivity of each line.

Hs746T = assay: 72 hr viability by Syto60, Hs746T; format: cell-based; conditions: Homo sapiens
Method: Many of the oncoproteins associated with gastric cancer and Hsp90 client proteins including HER2, MET, RAS and the FGFR family. […] Cells were treated for 72 hr and viability determined by CTG (upper) or Syto60 (lower).

[4] = system: Hsp90 client proteins in AGS gastric cancer cells; assay: Western blot of Hsp90 client proteins, AGS; format: cell-based
[5] = system: MET, IGF-IR, AKT in MKN45 cells; assay: Western blot of Hsp90 client proteins, MKN45; format: cell-based
[6] = system: Detroit 562 H/N cancer cells; assay: Single agent viability assay, Detroit 562, 72 hr; format: cell-based
Text: Head and neck (H/N) cancer refers to a group of biologically similar cancers originating from the upper autodigestive tract. First line therapies include EGFR inhibitors and platins.

[7] = system: Chk1 and Chk2 phosphorylation in Detroit 562 head and neck cancer cells; assay: Western blot after bleomycin, Detroit 562; format: cell-based; conditions: 100 nM 24 hours prior to bleomycin (5 μM)
Method: Protein expression of Parp, P-Chk1, P-Chk2, and Gapdh (control) was measured at the indicated time points (1, 4, and 8 hours) after bleomycin treatment.
Protein expression was measured at the indicated time points after bleomycin treatment.

[8] = system: human KRAS mutant NSCLC tumor xenografts; assay: KRAS mutant NSCLC tumor xenografts in vivo; design: species or system mouse; conditions: single agent
Method: Female immunodeficient CD-1 (nude) mice (Charles River Laboratories, Wilmington, Mass.) were maintained in a pathogen-free environment, and all in vivo procedures were approved by the Synta Pharmaceuticals Corp. Institutional Animal Care and Use Committee. A549 NSCLC cells (7.5×10^6) were subcutaneously implanted into the animals. […] Tumor growth inhibition was determined as described previously. See Proia et al, PLoS One. 2011; 6(4):e18552.

[9] = Pharmacokinetics in the Phase 1 combination trial with docetaxel; format: in vivo, human; conditions: patients
Method: A trial to evaluate three dose-level combinations of docetaxel and the compound of formula (I), administered on a three-week cycle, with the primary objective of determining an optimal dose for future clinical trials was performed. […] The standard of care dose level for docetaxel was 75 mg/m^2. A total of 19 patients received at least one dose of study treatment at the cut-off time. The median number of cycles of treatment was 4, with a range of 1 to 11 cycles of treatment. No prophylactic treatment for neutropenia was used.

Method for metastatic breast cancer: The primary endpoint of the trial was overall response rate using RECIST 1.1. Patients with HER2+ breast cancer were required to have received prior therapy with trastuzumab. No more than 3 lines of chemotherapy in the metastatic setting were permitted, but there was no limit on prior lines of hormone therapy. Patients were evaluated for response after 2 cycles. The trial used a Simon two-stage design requiring at least 3 responses among the first 22 patients, to allow expansion to a total of 40 patients.

CC(C)c1cc(-c2nnc(O)n2-c2ccc3c(ccn3C)c2)c(O)cc1O [compound of formula (I), ganetespib]
Confirmed partial responses, melanoma (solid tumors [1]): 1 patient
Confirmed partial responses, triple negative breast cancer (solid tumors [1]): 1 patient
Adverse events reported in >20% of patients (NSCLC; 73 patients, 200 mg/m^2 once weekly for 3 of a 4-wk cycle, generally grade 1-2): diarrhea, fatigue, nausea, anorexia, constipation, and dyspnea
Objective response rate (CR + PR) (NSCLC; ALK+ patients, 4/8): 50%
Best response reported, cohort C (NSCLC; Cohort C: EGFR wild-type, KRAS wild-type): durable partial response (PR)
Tolerability (NSCLC; single agent, 200 mg/m^2 once weekly): well-tolerated in patients with NSCLC at 200 mg/m^2 once weekly without severe liver, ocular, cardiovascular or renal toxicity
Patients with SD≧8 wks (GIST; 23 evaluable patients): 8 patients
Patients with SD≧16 wks (GIST; 23 evaluable patients): 4 patients
Tolerability (GIST; once-weekly dosing): well-tolerated in patients with heavily pre-treated advanced GIST, with no evidence of severe liver, ocular, cardiac or renal toxicity
Tolerability (solid tumors [2]; twice-weekly): well-tolerated administered twice-weekly
Response in a patient with metastatic melanoma (solid tumors [2]; twice-weekly dosing): confirmed durable PR by RECIST
Distribution [3]: rapid distribution
IC50 (HCC70): 0.114 µM
IC50 (Hs746T): 0.384 µM
Effect on B-RAF expression [4]: enhanced B-RAF expression
Effect on Hsp90 client protein expression [4]: abolished the expression of EGFR, IGF-IR, C-RAF and their down-stream effectors PI3K/AKT and MAPK
Effect on MET, IGF-IR and AKT [5]: complete degradation of MET and IGF-IR, followed by inactivation of AKT
Extent of cell kill after 72 hr exposure [6]: A fraction of cells remained viable
Effect on bleomycin-increased Chk1 and Chk2 phosphorylation [7]: blocked
Growth of tumor xenografts [8]: effectively suppressed the growth
Effect on docetaxel pharmacokinetics [9]: no effect
Pharmacokinetics alone versus administered prior to docetaxel [9]: pharmacokinetic similarity
CBR (CR + PR + SD > 6 months) (metastatic breast cancer; ER+/HER2− (N = 6)): 0 patients
CR (metastatic breast cancer; ER+/HER2− (N = 6)): 0 patients
ORR (metastatic breast cancer; ER+/HER2− (N = 6)): 0 patients
PR (metastatic breast cancer; ER+/HER2− (N = 6)): 0 patients
CBR (CR + PR + SD > 6 months) (metastatic breast cancer; HER2+ (N = 13)): 2 (9%) patients (%)
CR (metastatic breast cancer; HER2+ (N = 13)): 0 patients
ORR (metastatic breast cancer; HER2+ (N = 13)): 2 (9%) patients (%)
PR (metastatic breast cancer; HER2+ (N = 13)): 2 patients
CBR (CR + PR + SD > 6 months) (metastatic breast cancer; TNBC (N = 3)): 0 patients
CR (metastatic breast cancer; TNBC (N = 3)): 0 patients
ORR (metastatic breast cancer; TNBC (N = 3)): 0 patients
PR (metastatic breast cancer; TNBC (N = 3)): 0 patients
CBR (CR + PR + SD > 6 months) (metastatic breast cancer; Total (N = 22)): 2 (9%) patients (%)
CR (metastatic breast cancer; Total (N = 22)): 0 patients
PR (metastatic breast cancer; Total (N = 22)): 2 (9%) patients (%)
ORR (metastatic breast cancer; Total (N = 22), 200 mg/m^2 once weekly 3 weeks of 28 day cycle, RECIST 1.1): 2 (9%) patients (%)
